Earlier results as cited in US11964949B2, “Substituted phenyloxazolidinones for antimicrobial therapy” (priority 2015, dated 2024).

Test system: Mycobacterium tuberculosis, including multidrug-resistant (MDR) and extensively drug resistant (XDR) strains
Settings: M. tuberculosis incl. MDR and XDR strains; cited from earlier work

CC(=O)NC[C@H]1CN(c2ccc(N3CCOCC3)c(F)c2)C(=O)O1 [Linezolid]
minimum inhibitory concentration (MIC): less than 1 ag/ml
